We go through three molecules from US20220273671A1, “TOPICAL FORMULATIONS FOR TREATMENT OF PERIPHERAL NEUROPATHIES” (priority 2019, published 2022).

The conditions of data set [1]: cited from earlier work.
For another data set, the system named is diabetic mice. As to conditions: topical; cited from earlier work.
The target of another data set is T1, M1R (Homo sapiens, UniProt P11229).
T1 sequence (P11229 1-460): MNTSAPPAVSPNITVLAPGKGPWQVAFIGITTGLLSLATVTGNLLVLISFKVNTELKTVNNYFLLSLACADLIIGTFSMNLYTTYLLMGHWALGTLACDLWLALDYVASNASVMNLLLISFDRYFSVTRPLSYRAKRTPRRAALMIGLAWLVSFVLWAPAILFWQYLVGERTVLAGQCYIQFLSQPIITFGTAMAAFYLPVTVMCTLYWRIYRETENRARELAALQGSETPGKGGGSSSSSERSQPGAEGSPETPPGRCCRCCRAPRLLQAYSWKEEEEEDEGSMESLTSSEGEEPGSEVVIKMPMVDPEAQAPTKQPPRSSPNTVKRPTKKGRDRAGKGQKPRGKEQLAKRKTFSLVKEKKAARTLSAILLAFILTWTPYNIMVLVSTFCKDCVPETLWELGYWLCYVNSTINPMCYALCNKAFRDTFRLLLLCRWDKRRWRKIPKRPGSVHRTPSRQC
As to conditions: cited from earlier work.

The nature of data set [2]: Plasma pharmacokinetics of topical pirenzepine formulations in healthy volunteers, 14 days. To be noted: any subject, any time point, any day.
Description: PK: Blood samples were collected for the determination of pirenzepine concentration at the following nominal times:
Blood samples on Days 1, 7, and 14 were collected via either the indwelling intravenous (IV) cannula to reduce the frequency of direct venipuncture (at the discretion of the Investigator).
A validated liquid chromatography tandem mass-spectroscopy method (LLOQ: 0.1 ng/mL and ULOQ: 200 ng/mL) was used to determine the concentration of pirenzepine in plasma. […] For the pirenzepine concentration analysis in biopsy samples, a qualified method (LLOQ 1.00 mg/mL) was used.
Pirenzepine concentrations in plasma and skin biopsies were evaluated using Phoenix™ WinNonlin® version 8.0 (Pharsight Corporation, USA) and Microsoft® Excel® 2010 (Microsoft Corporation, USA).
Pharmacokinetic Population: According to the statistical analysis plan, the PK population comprised all randomized subjects with evaluable plasma concentrations of pirenzepine (ie, subjects with plasma concentrations considered sufficient and interpretable [at the discretion of the pharmacokineticist]). […] Any exclusion from the PK population was determined by the pharmacokineticist on blinded data, after database lock and prior to unblinding the study. […]
The goodness of fit of the regression was evaluated using the adjusted square of the correlation coefficient (R2 adjusted). […]

In brackets after ≈: the same amount, converted by molar mass.

A word on the Log P: it is a log measure of how a compound divides between an organic and an aqueous phase. In general, Solubility refers to the dissolved amount per volume that the medium holds. Turning to `CN1CCN(CC(=O)N2c3ccccc3C(=O)Nc3cccnc32)CC1` [pirenzepine], in data set [1], the “Log P” value was 0.6 and the Solubility is 0.0682 mg/mL (≈ 194 µM). Also, in the data set on diabetic mice, the intraepidermal nerve fibers result is “prevented and reversed loss of intraepidermal nerve fibers”; the “motor nerve conduction velocity” value is given as “prevented deficits in motor nerve conduction velocity”; the sub-epidermal nerve plexus result was “prevented loss of sub-epidermal nerve plexus”; the tactile allodynia result was “prevented tactile allodynia”. Also, in the data set with diabetic mice, the thermal hypoalgesia result is “prevented and reversed the development of thermal hypoalgesia”.

`O=C(CCNS(=O)(=O)c1cccc2nsnc12)N1CCN(c2ccncc2)CC1` [VU0255035]: the “selectivity to M1R relative to M2, M3, M4 and M5 receptors” value on M1R is 75 times.

Turning to `O=C1Nc2cccnc2N(C(=O)CN2CCNCC2)c2ccccc21` [desmethyl pirenzepine], the “plasma level of the primary metabolite” value in data set [2] was “not quantifiable”.
